Experimental data taken from paper PMC11233548 (Communications Biology, 2024).

Tested on: B-RBD-D211A, D213A
Assay: BRET-titration Gal1/B-RBD-D211A, D213A
Assay type: cell-based, human
Conditions: versus wild-type, n = 3

With “Gal1: galectin-1, H-Ras nanocluster scaffold” the “BRETtop, Gal1/B-RBD-D211A, D213A” value was “significantly reduced”.
